From ChEMBL document CHEMBL1124165, “1-(2,3-Anhydro-beta-D-lyxofuranosyl)cytosine derivatives as potential inhibitors of the human immunodeficiency virus” (J Med Chem, 1988)

System: ATH-8 cell line
Assay: Tested in vitro for concentration with significant protective effect on ATH8 cells exposed to HIV
Type: functional, cell-based
Details: Homo sapiens

| SMILES | Concentration [µM] |
| --- | --- |
| Nc1ccn([C@@H]2O[C@H](CO)[C@H]3OC23)c(=O)n1 (some centres undefined) | 5 |

System: ATH-8 cell line
Assay: Tested in vitro for concentration with significant protective effect on ATH8 cells exposed to HIV; No significant effect at concentrations 100 uM
Type: functional, cell-based
Details: Homo sapiens

| SMILES | Concentration |
| --- | --- |
| Cc1cn([C@@H]2O[C@H](CO)C[C@@H]2O)c(=O)[nH]c1=O | No significant effect at concentrations 100 uM |
| CNc1ccn([C@@H]2O[C@H](CO)[C@H]3OC23)c(=O)n1 (some centres undefined) | No significant effect at concentrations 100 uM |
| Cc1cn([C@@H]2O[C@H](CO)[C@H](N=[N+]=[N-])C2O)c(=O)[nH]c1=O (some centres undefined) | No significant effect at concentrations 100 uM |
| Cc1cn([C@@H]2O[C@H](CO)[C@H]3OC23)c(=O)[nH]c1=O (some centres undefined) | No significant effect at concentrations 100 uM |
| [N-]=[N+]=N[C@@H]1C(O)[C@H](n2ccc(=O)[nH]c2=O)O[C@@H]1CO (some centres undefined) | No significant effect at concentrations 100 uM |
| O=c1[nH]c(=O)n([C@@H]2O[C@H](CO)[C@H]3OC23)cc1Br (some centres undefined) | No significant effect at concentrations 100 uM |
| COc1ccn([C@@H]2O[C@H](CO)[C@H]3OC23)c(=O)n1 (some centres undefined) | No significant effect at concentrations 100 uM |
| C[C@H]1[C@H](O)[C@H](n2ccc(=O)[nH]c2=O)O[C@@H]1CO | No significant effect at concentrations 100 uM |
| Nc1ccn([C@@H]2O[C@H](CO)C[C@@H]2O)c(=O)n1 | No significant effect at concentrations 100 uM |
| [N-]=[N+]=N[C@@H]1C(O)[C@H](n2ccc(N)nc2=O)O[C@@H]1CO (some centres undefined) | No significant effect at concentrations 100 uM |
| O=c1ccn([C@@H]2O[C@H](CO)[C@H]3OC23)c(=O)[nH]1 (some centres undefined) | No significant effect at concentrations 100 uM |
| O=c1nc(NO)ccn1[C@@H]1O[C@H](CO)[C@H]2OC12 (some centres undefined) | No significant effect at concentrations 100 uM |

Species: Homo sapiens
Assay: Tested in vitro for concentration with significant protective effect on CD4+ cells exposed to HIV
Type: functional
Details: not given

| SMILES | Concentration [µM] |
| --- | --- |
| Nc1ccn([C@@H]2O[C@H](CO)[C@H]3OC23)c(=O)n1 (some centres undefined) | 5 |
